Reference: patent publication US11938129B2, “Methods and compositions for the treatment of vascular disease” (THE GENERAL HOSPITAL CORPORATION, priority 2018, dated 2024)

What was measured:
[1] = system: PDGFR; assay: immunofluorescence of p-PDGFR in ligated carotid; assay type: in vivo, mouse; conditions: media and intima of carotid arteries
Protocol: (§1) All mice used in this study were cared for under strict compliance with the Partners Institutional Animal Care and Use Committee (IACUC), regulated by the United States Public Health Service (USPHS). Carotid ligations were performed in 10 week old mice. Briefly, animals were anesthetized using intraperitoneal ketamine/xylazine (80 and 12 mg/kg, respectively) followed by a small incision in the neck to expose the carotid artery. Then the left carotid was ligated at the carotid bifurcation level using a 8-0 silk suture. At 21 days mice were sacrificed and carotids were collected for histological analysis. Approximately 98% of wild type mice developed stenotic lesions. Mice that developed thrombosis of the ligated carotid were excluded from the study (−1¬2%). Malatl knockout mice were kindly provided by Dr. David Spector (Cold Spring Harbor, N.Y.). Hdac9 flox/flox/Talgn-cre mice were generated as previously reported (10). […]
(§2) Left and right carotids were cryosectioned using OCT standard protocol and sectioning. […] Slides 1, 5, 10, and 15 were H&E stained for quantification of neointima. For quantification of the neointima, internal and external elastic lamina perimeters and medial thickness from 4 quadrants were measured and averaged using Image J software from the National Institutes of Health (NIH). […]

[2] = system: TGF-β signaling; assay: TGF-β activity by phosphorylation of Smad2 or Erk1 in aortas of treated mice; assay type: in vivo, mouse; conditions: aortic tissue of treated Fbn1C1039G/+ mice
Protocol: Latex was injected into the left ventricular apex under low pressure until it was visible in the femoral artery. Animals were then fixed in Formalin (10%) for 24 hours before transfer to 70% ethanol for dissection and storage. Aortas were then removed from the animals or dissected in situ for photography prior to paraffinization and sectioning (10 pM). Slides were produced for tissue staining or stained with standard stains including H&E staining, collagen deposition (Trichrome Stain (Masson) Kit, Sigma, USA), elastin (Verhoeff-Van Gieson, Thermo Scientific, MI, USA) or F-actin (ActinGreen™ 488 ReadyProbes, ThermoFisher Scientific, USA) for quantitative analysis. Elastin integrity score was rated by blinded observers and graded on an arbitrary scale of 5 (indicating high quality elastic fiber) to 1 (indicating severe elastin fragmentation). For nuclear staining aortas from human and mice were cryosectioned using OCT standard protocol as described previously (Fischer et al., 2008). Cohorts of 8-week-old wild-type or Fbn1cw3gGi+ mice were treated with oral administration in drinking water of either Losartan or GSK343 for 20 weeks (FIG. 5). […] Then 200 mL of drinking water was supplemented with 250 pL of GSK343 stock solution. […] Aortic dimensions were monitored monthly by echocardiograms as mentioned above.

[3] = target: EZH1 (Homo sapiens, UniProt Q92800); conditions: cited from earlier work
EZH1, sequence (Q92800 whole entry, species assumed): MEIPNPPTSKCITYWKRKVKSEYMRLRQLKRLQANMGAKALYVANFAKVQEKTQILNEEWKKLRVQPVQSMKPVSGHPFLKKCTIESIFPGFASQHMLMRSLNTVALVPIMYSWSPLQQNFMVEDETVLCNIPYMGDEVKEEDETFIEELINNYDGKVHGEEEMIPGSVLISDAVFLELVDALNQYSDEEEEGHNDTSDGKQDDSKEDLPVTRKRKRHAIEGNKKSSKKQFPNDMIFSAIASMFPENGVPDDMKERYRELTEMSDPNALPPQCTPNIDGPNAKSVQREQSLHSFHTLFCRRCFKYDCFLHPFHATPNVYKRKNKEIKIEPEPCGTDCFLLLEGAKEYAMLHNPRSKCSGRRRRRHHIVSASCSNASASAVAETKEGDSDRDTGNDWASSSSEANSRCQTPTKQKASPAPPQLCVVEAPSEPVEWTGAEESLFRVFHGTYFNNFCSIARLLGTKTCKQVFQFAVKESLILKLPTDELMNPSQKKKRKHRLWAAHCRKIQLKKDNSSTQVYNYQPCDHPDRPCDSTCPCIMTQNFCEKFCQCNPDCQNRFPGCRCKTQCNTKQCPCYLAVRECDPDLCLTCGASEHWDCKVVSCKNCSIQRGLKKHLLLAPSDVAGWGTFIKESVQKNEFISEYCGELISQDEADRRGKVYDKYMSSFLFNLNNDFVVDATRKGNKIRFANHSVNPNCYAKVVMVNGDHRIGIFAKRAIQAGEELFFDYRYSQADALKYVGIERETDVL
EZH1, sequence (O75530 whole entry partner, species assumed): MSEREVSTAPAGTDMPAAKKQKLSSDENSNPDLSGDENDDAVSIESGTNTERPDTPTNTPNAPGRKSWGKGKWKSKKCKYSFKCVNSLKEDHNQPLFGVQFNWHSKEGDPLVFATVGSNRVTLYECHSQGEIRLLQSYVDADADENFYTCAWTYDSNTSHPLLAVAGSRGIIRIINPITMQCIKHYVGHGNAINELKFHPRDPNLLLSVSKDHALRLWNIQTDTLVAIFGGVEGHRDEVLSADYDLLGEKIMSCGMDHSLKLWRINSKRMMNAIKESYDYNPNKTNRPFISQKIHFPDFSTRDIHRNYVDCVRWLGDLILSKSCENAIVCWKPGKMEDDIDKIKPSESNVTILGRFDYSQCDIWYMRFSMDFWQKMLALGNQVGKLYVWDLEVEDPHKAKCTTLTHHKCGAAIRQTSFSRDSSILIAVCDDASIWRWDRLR
EZH1, sequence (Q15022 whole entry partner, species assumed): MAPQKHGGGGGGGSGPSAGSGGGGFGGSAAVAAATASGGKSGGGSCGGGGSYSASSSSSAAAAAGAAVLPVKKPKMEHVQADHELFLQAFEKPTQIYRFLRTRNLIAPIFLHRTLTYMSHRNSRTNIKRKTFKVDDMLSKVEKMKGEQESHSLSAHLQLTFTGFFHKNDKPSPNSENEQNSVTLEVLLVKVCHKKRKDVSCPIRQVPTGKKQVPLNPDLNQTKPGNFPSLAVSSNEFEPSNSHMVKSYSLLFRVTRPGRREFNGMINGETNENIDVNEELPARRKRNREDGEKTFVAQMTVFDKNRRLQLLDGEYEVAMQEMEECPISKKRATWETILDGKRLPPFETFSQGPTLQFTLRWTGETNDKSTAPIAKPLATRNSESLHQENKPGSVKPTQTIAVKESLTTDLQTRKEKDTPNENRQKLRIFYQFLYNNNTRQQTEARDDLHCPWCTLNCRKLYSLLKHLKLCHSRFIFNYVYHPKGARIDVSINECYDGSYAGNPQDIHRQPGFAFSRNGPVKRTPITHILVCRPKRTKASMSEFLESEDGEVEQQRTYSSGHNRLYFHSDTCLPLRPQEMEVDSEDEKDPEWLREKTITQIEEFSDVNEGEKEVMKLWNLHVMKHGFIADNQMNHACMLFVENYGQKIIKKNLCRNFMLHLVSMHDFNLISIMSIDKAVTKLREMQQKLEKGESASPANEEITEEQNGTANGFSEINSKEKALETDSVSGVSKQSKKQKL
EZH1, sequence (Q09028 whole entry partner, species assumed): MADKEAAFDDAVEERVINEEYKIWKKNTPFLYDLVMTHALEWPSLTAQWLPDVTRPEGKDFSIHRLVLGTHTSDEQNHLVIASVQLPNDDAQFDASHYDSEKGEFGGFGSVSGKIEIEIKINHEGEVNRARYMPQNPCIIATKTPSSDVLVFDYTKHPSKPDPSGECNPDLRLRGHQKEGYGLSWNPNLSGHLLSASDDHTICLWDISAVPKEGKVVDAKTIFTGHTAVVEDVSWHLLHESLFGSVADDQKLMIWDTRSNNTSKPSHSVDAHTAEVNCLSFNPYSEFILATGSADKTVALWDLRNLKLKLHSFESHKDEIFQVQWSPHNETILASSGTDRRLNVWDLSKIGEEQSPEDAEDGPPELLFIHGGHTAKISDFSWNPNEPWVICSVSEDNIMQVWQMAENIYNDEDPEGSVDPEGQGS
EZH1, sequence (Q6ZN18 whole entry partner, species assumed): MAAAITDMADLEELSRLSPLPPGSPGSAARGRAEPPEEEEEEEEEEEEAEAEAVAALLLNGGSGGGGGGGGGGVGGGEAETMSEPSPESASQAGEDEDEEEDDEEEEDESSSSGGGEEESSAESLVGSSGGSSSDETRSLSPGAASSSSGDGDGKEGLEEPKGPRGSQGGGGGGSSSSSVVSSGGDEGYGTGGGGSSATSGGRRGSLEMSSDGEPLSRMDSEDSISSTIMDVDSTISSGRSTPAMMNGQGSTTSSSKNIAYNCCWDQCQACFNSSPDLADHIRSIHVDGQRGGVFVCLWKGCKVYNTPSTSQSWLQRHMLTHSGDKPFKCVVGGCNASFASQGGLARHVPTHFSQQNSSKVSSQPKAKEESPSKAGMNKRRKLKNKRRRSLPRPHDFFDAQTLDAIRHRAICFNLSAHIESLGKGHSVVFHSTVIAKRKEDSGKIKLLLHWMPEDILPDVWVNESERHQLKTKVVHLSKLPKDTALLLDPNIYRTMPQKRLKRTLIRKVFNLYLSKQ

[4] = system: Hdac9; assay: immunofluorescence of Hdac9 in ligated carotid; assay type: in vivo, mouse; conditions: arterial media and intima of carotid arteries
Protocol: as §1, §2

[5] = system: VSMCs; assay: cytoskeletal architecture of VSMCs treated with GSK343; assay type: cell-based, mouse
Protocol: Primary human aortic smooth muscle cells (HAoSMC) from healthy donors were purchased from Cell Applications Inc., California, USA (Cat. #354K-05a). Primary aneurysm aortic SMCs were isolated from fresh TAA tissue at the moment of surgery by standard explant of the aortic media. Mouse aortic SMCs were isolated by standard explant of the ascending section of the aortas from wild-type or Fbn1ci°39G1+ mice. Smooth muscle cell identity was assessed by immunofluorescence staining of contractile markers including SM22a, Calponin, Smoothelin and Vinculin. In order to preserve cell identity all experiments were carried out at passages 1-5 (Timraz et al., 2016). Human and murine SMCs were grown with smooth muscle cell growth medium from Cell Applications Inc. (Cat. #311-500). […] Fresh media containing GSK343 was supplied daily. For GSK343/TGF81 (10 ng/mL) combo treatment, cells were first treated with complete media containing GSK343 at concentration of 10 nM during the 2 first days followed by GSK343/TGFβ combination treatment the next 2 days. Prior to cellular collection cells were washed with sterile PBS and RNA or protein extraction were performed as described above.

CCCc1cc(C)[nH]c(=O)c1CNC(=O)c1cc(-c2ccnc(N3CCN(C)CC3)c2)cc2c1cnn2C(C)C [GSK343]
phosphorylation of PDGFR [1]: dramatic reduction
TGF-β activity as assessed by phosphorylation of Smad2 or Erk1 protein [2]: did not suppress and not
selectivity for EZH2 vs. EZH1 [3]: 60 fold
accumulation of Hdac9 [4]: decreased accumulation
cytoskeletal architecture [5]: improved cytoskeletal architecture
